Reference: publication PMC12368478, “Targeting Ubiquitin‐Specific Protease 7 with Novel 5‐Amino‐Pyrazole Inhibitors: Design, Synthesis, and Biological Evaluation” (Chemmedchem, 2025)
Where “and” joins values, the source holds several entries; their conditions need not be identical. Equal entries are not always repeated.

How the values were obtained:
A549 lung adenocarcinoma = test: MTT assay, A549; type: cell-based; conditions: A549, 10 μM, 48 h
Description: (§1) To evaluate the cytotoxicity of the novel USP‐7 inhibitors, compounds 1a–d were preliminary screened at a fixed concentration of 10 μM against eight different cancer cell lines (namely, MCF7 breast adenocarcinoma, SKOV‐3 ovarian adenocarcinoma, Hep‐G2 hepatocellular carcinoma, SK‐Mel28 cutaneous melanoma, MDA‐MB‐231 breast adenocarcinoma, SK‐BR3 breast adenocarcinoma, HeLa cervix epithelioid carcinoma, and A549 lung adenocarcinoma) as well as nonmutated human embryonic fibroblasts (GM‐6114). Cisplatinum (Cis‐Pt) was used as the reference compound.
(§2) To perform the MTT assay, SK‐BR3 (breast adenocarcinoma, Biologic Bank and Cell Factory, IRCCS Policlinico San Martino, Genoa, Italy), MCF‐7 (breast adenocarcinoma, Biologic Bank and Cell Factory, IRCCS Policlinico San Martino, Genoa, Italy), SK‐Mel28 (skin melanoma, Biologic Bank and Cell Factory, IRCCS Policlinico San Martino, Genoa, Italy), Hep‐G2 (hepatocellular carcinoma, ATCC, Manassas, VA), SKOV‐3 (ovarian adenocarcinoma, ATCC, Manassas, VA), MDA‐MB‐231 (breast adenocarcinoma, Biologic Bank and Cell Factory, IRCCS Policlinico San Martino, Genoa, Italy), HeLa (cervical adenocarcinoma, Biologic Bank and Cell Factory, IRCCS Policlinico San Martino, Genoa, Italy), A549 (lung adenocarcinoma, ATCC, Manassas, VA), and GM‐6114 (normal human embryonic fibroblast, ATCC, Manassas, VA) cell lines were cultured in Dulbecco's modified eagle medium (DMEM added with 10% Fetal bovine serum, 2 mM Glutamine, and 1% pen‐strep) and incubated in a humidified environment at 37 °C with 5% CO2. Reagents were acquired from EuroClone (Milan, Italy). All chemical compounds were dissolved in DMSO to give a 10 mM stock solution. Then, after an intermediate dilution in growth medium, they were added to the cultured cells at a final working concentration of 10 μM and incubated for 48 h. At the end of the incubation, 30 μL of MTT (3‐(4,5‐dimethyl‐2‐thiazolyl)‐2,5‐diphenyl‐2H‐tetrazolium bromide) at a concentration of 2 mg mL^−1 in phosphate buffered saline (PBS) were added into each well and further incubated for 4 h. Finally, the supernatants were removed and 100 μL well of DMSO were added to each well to dissolve the Formazan precipitates. After 20 min, plates were read at 570 nm. Results are expressed as the percentage of the control samples where cells have been treated with the same amount of DMSO but without any chemical compound. The assay was repeated three times, and a single compound was tested six times. Means and standard deviations were calculated.

[1] = tested on: HeLa cervix epithelioid carcinoma; test: MTT assay, HeLa; type: cell-based; conditions: 10 μM, 48 h
Description: as §1, §2

[2] = tested on: Hep‐G2 hepatocellular carcinoma; test: MTT assay, Hep‐G2; type: cell-based; conditions: Hep‐G2, 10 μM, 48 h
Description: as §1, §2

[3] = tested on: MCF7 breast adenocarcinoma; test: MTT assay, MCF7; type: cell-based; conditions: MCF7, 10 μM, 48 h
Description: as §1, §2

[4] = tested on: MDA‐MB‐231 breast adenocarcinoma; test: MTT assay, MDA‐MB‐231; type: cell-based; conditions: MDA‐MB‐231, 10 μM, 48 h
Description: as §1, §2

[5] = tested on: SK‐BR3 breast adenocarcinoma; test: MTT assay, SK‐BR3; type: cell-based; conditions: SK‐BR3, 10 μM, 48 h
Description: as §1, §2

[6] = tested on: SK‐Mel28 cutaneous melanoma; test: MTT assay, SK‐Mel28; type: cell-based; conditions: SK‐Mel28, 10 μM, 48 h
Description: as §1, §2

[7] = tested on: SKOV‐3 ovarian adenocarcinoma; test: MTT assay, SKOV‐3; type: cell-based; conditions: SKOV‐3, 10 μM, 48 h
Description: as §1, §2

recombinant USP‐7 = molecular target: T1, recombinant USP‐7 (Homo sapiens, UniProt Q93009); test: USP‐7 fluorescence-based enzymatic assay (Ub‐AMC); type: biochemical; conditions: recombinant USP‐7, Ubiquitin–AMC substrate, 30 min preincubation; average of three separate experiments
T1 construct: purchased BPS Bioscience 79,256
T1 sequence (Q93009 whole entry): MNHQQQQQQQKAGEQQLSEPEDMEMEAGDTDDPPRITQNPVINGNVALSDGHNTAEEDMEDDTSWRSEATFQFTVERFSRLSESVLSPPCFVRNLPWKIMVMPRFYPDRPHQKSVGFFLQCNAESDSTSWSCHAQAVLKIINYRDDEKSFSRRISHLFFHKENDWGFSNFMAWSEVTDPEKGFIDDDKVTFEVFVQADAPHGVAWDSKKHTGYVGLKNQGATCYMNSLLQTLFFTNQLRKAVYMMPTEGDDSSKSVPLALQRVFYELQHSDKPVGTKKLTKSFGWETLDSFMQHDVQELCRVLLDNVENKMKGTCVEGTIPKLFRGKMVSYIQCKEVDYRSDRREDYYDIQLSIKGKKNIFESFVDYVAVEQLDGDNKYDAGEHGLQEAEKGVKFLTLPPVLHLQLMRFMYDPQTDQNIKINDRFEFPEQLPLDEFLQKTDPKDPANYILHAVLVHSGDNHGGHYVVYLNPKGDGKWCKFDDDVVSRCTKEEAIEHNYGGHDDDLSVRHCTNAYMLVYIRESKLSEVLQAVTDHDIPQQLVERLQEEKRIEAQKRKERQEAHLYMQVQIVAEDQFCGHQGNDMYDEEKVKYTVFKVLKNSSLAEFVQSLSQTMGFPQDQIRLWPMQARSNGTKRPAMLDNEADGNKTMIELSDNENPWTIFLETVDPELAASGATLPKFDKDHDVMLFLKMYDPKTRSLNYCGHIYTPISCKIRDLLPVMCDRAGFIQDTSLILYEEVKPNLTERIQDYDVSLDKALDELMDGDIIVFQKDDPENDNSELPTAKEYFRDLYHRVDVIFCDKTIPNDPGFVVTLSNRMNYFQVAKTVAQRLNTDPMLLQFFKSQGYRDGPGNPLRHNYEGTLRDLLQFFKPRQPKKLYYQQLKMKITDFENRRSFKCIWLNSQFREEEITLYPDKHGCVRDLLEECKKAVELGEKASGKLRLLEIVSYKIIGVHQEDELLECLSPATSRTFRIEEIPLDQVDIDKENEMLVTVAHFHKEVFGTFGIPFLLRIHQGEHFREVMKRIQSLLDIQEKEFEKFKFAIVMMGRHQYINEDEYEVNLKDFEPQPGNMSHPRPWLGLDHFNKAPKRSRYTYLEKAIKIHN
Description: The inhibition efficiency of compounds 1a–d and 2a–d on the USP‐7 enzyme was assessed using a fluorescence‐based enzymatic assay, employing Ubiquitin–AMC as a substrate. In this assay, USP‐7 hydrolyzes Ubiquitin–AMC, leading to an increase in fluorescence signal. To evaluate the inhibitory potential, recombinant USP‐7 was preincubated with varying concentrations of the test compounds before adding the substrate, and fluorescence intensity was subsequently measured. […] Additionally, the elongation of the side chain in compounds 2a–d completely abolished the activity.
In vitro enzymatic inhibition was measured using the USP‐7 inhibitor screening assay kit (catalog #79,256, BPS Bioscience, San Diego, CA, USA) according to the manufacturer's instructions. Briefly, compound stock solutions were prepared in DMSO and diluted tenfold to obtain the working solutions. Then, these solutions and the vehicle control were added to the black 384‐wells plate, together with the USP‐7 enzyme, previously diluted as required by the manufacturer, and incubated at rt for 30 min. Then, the Ub‐AMC substrate was diluted 400‐fold and added to the plate, followed by incubation at rt for 30 min. The final DMSO amount in each well was 1%.

[8] = tested on: nonmutated human embryonic fibroblasts (GM‐6114); test: MTT assay, GM‐6114; type: cell-based; conditions: GM‐6114 healthy fibroblasts, 10 μM, 48 h
Description: as §1, §2

[9] = Parallel artificial membrane permeability assay (PAMPA); type: in vitro ADME; conditions: for LogPe ± SD: PBS pH 7.4, 5 h
Description: The assay was prepared as follows: 300 μL of PBS pH 7.4 (5% DMSO) was placed in the acceptor wells. A phosphatidylcholine (PC) solution was obtained by dissolving and vortexing PC at 1% w/v in dodecane and solubilized using an ultrasound bath until a clear solution was obtained. […] of this solution was deposited on the membrane portion of the donor well. 150 μL of each molecule, at 100–250 μM final concentration (5% DMSO), was pipetted in the […]. The acceptor (Multiscreen transport Receiver Plate, 96‐well, polystyrene, Millipore) and donor plates (Multiscreen Filter Plates, IP, […], clear, hydrophobic PVDF, Millipore) were subsequently assembled and incubated for 5 h under gentle orbital shaking. The experiment was conducted in duplicate. Lucifer yellow was used as a negative control to establish the integrity of the membrane, quantifying its concentration in both acceptor and donor solutions using fluorescence. […] The results are expressed as means ± SEM of at least three independent experiments.

[10] = tested on: neuroblastoma HTLA‐230 cells; set-up: method as in PMID 36780313; conditions: cited from earlier work
USP‐7 = tested on: USP‐7; set-up: method as in PMID 37298148; conditions: in vitro and in‐cell assays, neuroblastoma‐related cells; cited from earlier work

IC50 (recombinant USP‐7) [µM] | LogPe ± SD ([9]; 100 μM) | LogPe ± SD ([9]; 250 μM) | membrane permeability (in words) ([9]; 100 and 250 μM) | Compound | Cell growth percent [%] (A549 lung adenocarcinoma) | Cell growth percent [%] [1] [%] | Cell growth percent [%] [2] [%] | Cell growth percent [%] [3] [%] | Cell growth percent [%] [4] [%] | Cell growth percent [%] [5] [%] | Cell growth percent [%] [6] [%] | Cell growth percent [%] [7] [%] | Cell growth percent [%] [8] [%] | inhibition of migratory ability [10] | inhibition of USP‐7 enzymatic activity and expression levels (USP‐7)
2.19 ± 0.49 |  |  |  | CCOC(=O)c1cnn(CC(C)OC(=O)Nc2ccccc2F)c1N (stereo not drawn) [Compound 1a, Ethyl 5‐Amino‐1‐(2‐(((2‐Fluorophenyl)Carbamoyl)Oxy)Propyl)‐1H‐Pyrazole‐4‐Carboxylate] | 104.43% | 105.06 | 97.50 | 109.46 | 106.29 | 98.76 | 95.28 | 102.26 | 105.96 |  | 
1.48 ± 0.31 |  |  |  | CCOC(=O)c1cnn(CC(C)OC(=O)Nc2cccc(F)c2)c1N (stereo not drawn) [Compound 1b, Ethyl 5‐Amino‐1‐(2‐(((3‐Fluorophenyl)Carbamoyl)Oxy)Propyl)‐1H‐Pyrazole‐4‐Carboxylate] | 39% and 39.06% | 95.63 | 95.70 | 104.08 | 73.53 | 135.91 | 115.09 | 98.78 | 68.07 |  | 
1.8 ± 0.39 |  |  |  | CCOC(=O)c1cnn(CC(C)OC(=O)Nc2ccc(F)cc2)c1N (stereo not drawn) [Compound 1c, Ethyl 5‐Amino‐1‐(2‐(((4‐Fluorophenyl)Carbamoyl)Oxy)Propyl)‐1H‐Pyrazole‐4‐Carboxylate] | 114.96% | 108.28 | 100.11 | 108.02 | 103.39 | 101.55 | 88.22 | 99.94 | 112.09 |  | 
1.31 ± 0.21 | −4.54 ± 0.02 | −4.81 ± 0.00 | highly permeable | CCOC(=O)c1cnn(CC(C)OC(=O)Nc2cccc(C(F)(F)F)c2)c1N (stereo not drawn) [Compound 1d, Ethyl 5‐Amino‐1‐(2‐(((3‐(Trifluoromethyl)Phenyl)Carbamoyl)Oxy)Propyl)‐1H‐Pyrazole‐4‐Carboxylate] | 90.69% | 106.40 | 100.73 | 113.85 | 119.94 | 95.04 | 90.77 | 99.40 | 96.18 |  | 

More lines, now with the values behind:

Compound | IC50 (recombinant USP‐7) [µM] | LogPe ± SD ([9]; 100 μM) | LogPe ± SD ([9]; 250 μM) | membrane permeability (in words) ([9]; 100 and 250 μM) | Cell growth percent [%] (A549 lung adenocarcinoma) | Cell growth percent [%] [1] [%] | Cell growth percent [%] [2] [%] | Cell growth percent [%] [3] [%] | Cell growth percent [%] [4] [%] | Cell growth percent [%] [5] [%] | Cell growth percent [%] [6] [%] | Cell growth percent [%] [7] [%] | Cell growth percent [%] [8] [%] | inhibition of migratory ability [10] | inhibition of USP‐7 enzymatic activity and expression levels (USP‐7)
N.N.[Cl][Pt][Cl] [Cis ‐Pt, Cisplatinum, reference compound] |  |  |  |  | 59.09% | 29.33 | 38.07 | 72.74 | 86.07 | 70.59 | 44.40 | 26.83 |  |  | 
CCOC(=O)c1cnn(CC(C)O)c1NC(=O)Nc1cccc(F)c1 (stereo not drawn) [STIRUR‐41, reference compound] | 2.77 ± 0.56 |  |  |  | 38.88% | 99.83 | 111.36 | 110.71 | 64.32 | 97.17 | 94.26 | 100.50 | 38.50 | significant inhibition | inhibit both the enzymatic activity of USP‐7 and its expression levels
